This is an account of results in patent US9410956B1, “Micro-RNA profiling in ovarian cancer” (University of South Florida, priority 2008, dated 2016).

In series [1] the test system is A2780CP cells. As to the kind of experiment: MTT cell viability assay after knockdown of miR-214. The class given is cell-based, human. The conditions noted are these: knockdown of miR-214 alone, 150 pMol oligonucleotide per well. On the procedure: (§1) FIG. 4B: An image showing an MTT assay. The 2′-O-me-anti-miR-214- or scramble 2′-O-me-transfected A2780CP cells were treated with 20 uM of cisplatin or DMSO vehicle for the indicated times and examined for cell viability.
2′-O-methyl (2′-O-me) oligoribonucleotides were synthesized by Integrated DNA Technologies. The sequences of 2′-O-methyl-anti-miR-214 and -miR-199a* are: 5′-[…]-3′ (SEQ ID NO: 1) and 5′-[…] UGUA-3′ (SEQ ID NO: 3). 2′-O-me-scrambled miR (5′-[…]-3′) (SEQ ID NO: 15) was used as a control. Cells were grown in 6-well plate (1.7×10^6 cells/well) for 24 h and transfected with 150 pMol of 2′-O-me oligoribonucleotides per well using Lipofectamine 2000. RNA and protein were extracted after 72 h transfection.
(§2) A2780CP cells were transfected with 2′-O-methyl-anti-miR-214. The cells transfected with 2′-O-methyl-scramble-miR were used as control. […] Further, the cells were treated with cisplatin or vehicle DMSO.
On the technique in general: Formazan colour is commonly taken as a measure of viable cells.

Another series deals with miR-214. As to the kind of experiment: qRT-PCR of miR-214 level after 2′-O-methyl oligonucleotide transfection. The class given is cell-based, human. As to conditions: A2780CP cells, 72 h after transfection. On the procedure: FIG. 4A: An image showing A2780CP, a cisplatin-resistant cell line and expressing elevated levels of endogenous miR-214, was transfected with 2′-O-me-anti-miR-214 or scramble 2′-O-me oligonucleotides and assayed with qRT-PCR with primers of miR-214 (top) and U6 (bottom).
Expression of miRNAs was also analyzed by RNase protection or mirVana qRT-PCR miRNA detection assay. For RNase protection assay, enriched small RNA was purified using the miRVana miRNA Isolation Kit (Ambion). The mirVana™ miRNA probe construction kit (Ambion) was used to synthesize the ^32P-labeled miR-214 probe. Probe hybridization and RNase protection were then carried out using the mirVana™ miRNA detection kit (Ambion) according to manufacturer's instructions. After hybridization and RNase treatment, the double-strand products were resolved in a 15% polyacrylamide 8 M urea denaturing gel and visualized using phosphoimaging and autoradiography. mirVana qRT-PCR was performed according to the manufacturer's protocol (Ambion). PCR products were analyzed by electrophoresis on a 7.5% polyacrylamide gel in 0.5×TBE and visualized by ethidium bromide staining.
2′-O-methyl (2′-O-me) oligoribonucleotides were synthesized by Integrated DNA Technologies. The sequences of 2′-O-methyl-anti-miR-214 and -miR-199a* are: 5′-[…]-3′ (SEQ ID NO: 1) and 5′-[…] UGUA-3′ (SEQ ID NO: 3). […]
A general note: Quantitative PCR measures a nucleic acid by following its amplification.

Series [2] has as its system PTEN. Description: Immunoblot of PTEN protein after knockdown of miR-214 in A2780CP cells. Type of series: cell-based, human. As to conditions: 72 h. On the procedure:
(§3) FIG. 2B: An image showing miR-214 reduces PTEN protein but not mRNA levels. HIOSE-80 cells (left panels) were transfected with pcDNA3.1/V5-His-Topo-miR-214, -miR199a* and vector alone and immunoblotted with indicated antibodies (panels 1-4). The expression of miR-214 and miR-199a* was determined by qRT-PCR (panels 5 and 6). PTEN mRNA level was measured by RT-PCR (panel 8). U6 (panel 7) and GAPDH (bottom panel) were used for controls. Middle and right panels show knockdown of miR-214 inducing PTEN expression. A2780CP cells were transfected with antisense 2′-O-methyl oligonucleotide targeting miR-214 at concentration of […] (6 well plate) with Lipofectamine 2000. Anti-miR199a* and scramble 2′-O-methyl oligonucleotide were used as controls. After incubation of 72 h, cells were lysed and immunoblotted with indicated antibodies (middle).
(§4) 2′-O-methyl (2′-O-me) oligoribonucleotides were synthesized by Integrated DNA Technologies. The sequences of 2′-O-methyl-anti-miR-214 and -miR-199a* are: 5′-[…]-3′ (SEQ ID NO: 1) and 5′-[…] UGUA-3′ (SEQ ID NO: 3). 2′-O-me-scrambled miR (5′-[…]-3′) (SEQ ID NO: 15) was used as a control. Cells were grown in 6-well plate (1.7×10^6 cells/well) for 24 h and transfected with 150 pMol of 2′-O-me oligoribonucleotides per well using Lipofectamine 2000. RNA and protein were extracted after 72 h transfection. […]

The test system of the next series is Akt. As to the kind of experiment: Immunoblot of phospho-Akt and Akt substrates after knockdown of miR-214 in A2780CP cells. The class given is cell-based, human. The conditions noted are these: 72 h. On the procedure: as §3, §4
A general note: A western blot detects proteins with antibodies after separation by electrophoresis.

Series [3] has as its system A2780CP cells. As to the kind of experiment: Cisplatin-induced apoptosis after knockdown of miR-214 (MTT, subG1 flow cytometry). Type of series: cell-based, human. As to conditions: 20 uM cisplatin. The protocol: as §1
FIG. 4C: An image showing flow cytometry. Indicated cells were treated with cisplatin or DMSO for 12 h and the subG1 population was identified by flow cytometry.
as §2

Series [4] relates to PTEN. As to conditions: ovarian cancer cell lines (Schondorf et al. 2004); cited from earlier work.
The next series relates to ovarian cancer. As to conditions: adjuvant chemotherapy, ovarian cancer patients (Aghajanian 2004); cited from earlier work.

Take “5′-CUGCCUGUCUGUGCCUGCUGU-3′ (all 2'-O-methyl, backbone not given here) [2′-O-methyl-anti-miR-214, antisense 2′-O-methyl oligoribonucleotide targeting miR-214]”: the “reduction of cell survival” value in the series on A2780CP cells [1] is “about 20%”. Also, in the series on miR-214, the “level of miR-214” value is given as “significantly decreased”. The “protein level of PTEN” value with PTEN [2] is “increased”. In addition, the “phosphorylation levels of Akt and Akt substrates GSK3β and p70S6K” value with Akt is on record as “decreased”. For the same molecule, the “sensitization to cisplatin-induced apoptosis” value in the series on A2780CP cells [3] is on record as “considerably sensitized”.
With `Nc1ncn([C@H]2C[C@H](O)[C@@H](CO)O2)c(=O)n1` [5-aza-2′ deoxycytidine], the PTEN protein expression entry in the series on PTEN [4] was “failed to restore”.
For the molecule `N.N.[Cl][Pt][Cl]` [cisplatin], the “clinical response (share of patients)” value in the series on ovarian cancer is “approximately 80%”.
